Test results published in ChEMBL document CHEMBL4811228, “Design, Synthesis, and Activity Evaluation of Novel Acyclic Nucleosides as Potential Anticancer Agents In Vitro and In Vivo” (J Med Chem, 2021).
pIC50: −log10 of the molar value. Activity calls are given as the source filed them. The rule behind the calls is not given here.

What was measured:
SW480 [1] = test: Binding affinity to 75kDa protein in human SW480 cells incubated for overnight by pull down based western blot analysis; format: cell-based
SW480 [2] = test: Binding affinity to 75kDa protein in human SW480 cells incubated for overnight by pull down based silver staining analysis; format: cell-based
HCT-116 [3] = test: Antiproliferative activity against human HCT-116 cells assessed as reduction in cell viability incubated for 48 hrs by MTT assay; format: functional, cell-based; conditions: HCT-116, 48 h
SW480 [4] = test: Antiproliferative activity against human SW480 cells assessed as reduction in cell viability incubated for 48 hrs by MTT assay; format: functional, cell-based; conditions: SW480, 48 h
HCT-116 [5] = test: Potency index, ratio of 5-FU IC50 to test compound IC50 for antiproliferative activity against human HCT-116 cells; format: functional
A549 = test: Antiproliferative activity against human A549 cells assessed as reduction in cell viability incubated for 48 hrs by MTT assay; format: functional, cell-based; conditions: A549, 48 h
U-87 MG = test: Antiproliferative activity against human U-87 MG cells assessed as reduction in cell viability incubated for 48 hrs by MTT assay; format: functional, cell-based, U-87MG ATCC
HeLa = test: Antiproliferative activity against human HeLa cells assessed as reduction in cell viability incubated for 48 hrs by MTT assay; format: functional, cell-based

Row | SMILES | pIC50 (HCT-116 [3]) | pIC50 (SW480 [4]) | other results
1 | C#CCCC1(CCN)N=N1 |  |  | Activity (SW480 [1]): inactive
2 | CCCCCCCCCC(CC(=O)NCCCCCNC(=O)CCCC[C@@H]1SC[C@@H]2NC(=O)N[C@@H]21)n1cnc2c(Cl)ncnc21 (mixture of isomers) | 4.35 | 4.34 | Activity (SW480 [2]): Active
3 | CCCCCCCCCC(CCO)n1cnc2c(N)nc(Cl)nc21 (racemic) | 4.83 | 4.91 | 
4 | CCCCCCCCC(CCO)n1c(Br)nc2c(Cl)ncnc21 (racemic) | 4.65 | 4.75 | 
5 | CCCCCC(CCO)n1cnc2cncnc21 (racemic) | < 4.30 | < 4.30 | 
6 | OCCC(CO)n1cnc2c(Cl)ncnc21 (racemic) | < 4.30 | < 4.30 | 
7 | CCCCCCCCCC(CCOCP(=O)(OCC)OCC)n1cnc2c(Cl)ncnc21 (racemic) | 5.04 | 5.32 | 
8 | CCCCCCCCC(CCO)n1cnc2c(N)nc(Cl)nc21 (racemic) | 4.68 | 4.88 | 
9 | CCCCCC(CCO)n1cnc2c(N)nc(Cl)nc21 (racemic) | < 4.30 | < 4.30 | 
10 | CCCCCCCCCCC(CCO)n1cnc2c(N)ncnc21 (racemic) | 5.59 |  | Ratio IC50 (HCT-116 [5]): 4
11 | CCCCCCC(CCO)n1cnc2c(N)nc(Cl)nc21 (racemic) | < 4.30 | < 4.30 | 
12 | CCCCCCCCCC(CCn1cc(-c2ccccc2)nn1)n1cnc2c(Cl)ncnc21 (racemic) | 4.87 | 5.00 | 
13 | C=C(CO)C(c1ccccc1)n1cnc2c(Cl)ncnc21 (racemic) | 4.48 | 4.89 | 
14 | CCCCCCCCC(CCO)n1cnc2c(N)ncnc21 (racemic) | 4.94 | 4.68 | 
15 | C#CCCC1(CCNC(=O)CC(CCCCCCCCC)n2cnc3c(Cl)ncnc32)N=N1 (racemic) | 4.67 | 4.89 | Activity (SW480 [1]): Active; Activity (SW480 [2]): Active
16 | CCCCCCCC(CCO)n1c(Br)nc2c(Cl)ncnc21 (racemic) | 4.79 | 4.84 | 
17 | CCCCCCCCCCCC(CCO)n1cnc2c(N)nc(Cl)nc21 (racemic) | 4.70 | 4.75 | 
18 | CCCCCCCC(CCO)n1cnc2c(N)ncnc21 (racemic) | < 4.30 | < 4.30 | 
19 | C=C(CO)C(CCCCCCCC)n1cnc2c(Cl)ncnc21 (racemic) | 4.71 | 4.79 | 
20 | CCCCCCCC(CCO)n1cnc2c(N)nc(Cl)nc21 (racemic) | < 4.30 | < 4.30 | 

Row | SMILES | pIC50 (HCT-116 [3]) | pIC50 (SW480 [4]) | other results
21 | C=C(CO)C(CCCCCC)n1cnc2c(Cl)ncnc21 (racemic) | 4.52 | 4.49 | 
22 | CCCCCCC(CCO)n1c(Br)nc2c(Cl)ncnc21 (racemic) | 4.79 | 4.85 | 
23 | CCCCCCCCCC(CCO)n1c(Br)nc2c(Cl)ncnc21 (racemic) | 4.57 | 4.60 | 
24 | CCCCCCCCCCCC(CCO)n1cnc2c(N)ncnc21 (racemic) | 4.87 | 4.94 | 
25 | CCCCC(CCO)n1cnc2cncnc21 (racemic) | < 4.30 | < 4.30 | 
26 | CCCCCC(CCO)n1c(Br)nc2c(Cl)ncnc21 (racemic) | 4.74 | 4.62 | 
27 | CCCCCCCCCC(CCOCP(=O)(O)O)n1cnc2c(Cl)ncnc21 (racemic) | < 4.30 | < 4.30 | 
28 | C=C(CO)C(CCCCCCCCC)n1cnc2c(Cl)ncnc21 (racemic) | < 4.30 | 4.56 | 
29 | CCCCCC(CCO)n1cnc2c(N)ncnc21 (racemic) | < 4.30 | < 4.30 | 
30 | CCCCCCCCCCC(CCO)n1cnc2c(N)nc(Cl)nc21 (racemic) | 4.93 | 4.88 | 
31 | CCCCCCCCCC(CCN=[N+]=[N-])n1cnc2c(Cl)ncnc21 (racemic) | 5.98 | 5.92 | 
32 | CCCCCCCCCC(CCCl)n1cnc2c(Cl)ncnc21 (racemic) | 4.99 | 5.14 | 
33 | C=C(CO)C(CCCCC)n1cnc2c(Cl)ncnc21 (racemic) | < 4.30 | < 4.30 | 
34 | CCCCCCCCCC(CCO)n1cnc2c(N)ncnc21 (racemic) | 4.98 | 5.22 | 
35 | CCCCCCC(CCO)n1cnc2c(N)ncnc21 (racemic) | < 4.30 | < 4.30 | 
36 | C=C(CO)C(CCCCCCC)n1cnc2c(Cl)ncnc21 (racemic) | 4.65 | 4.53 | 
37 | CCCCC(CCO)n1cnc2c(N)ncnc21 (racemic) | < 4.30 | < 4.30 | 
38 | CCCCCCCCCC(CCOS(C)(=O)=O)n1cnc2c(Cl)ncnc21 (racemic) | 5.26 | 5.27 | 
39 | CCCCCCC(CCO)n1cnc2cncnc21 (racemic) | < 4.30 | < 4.30 | 
40 | O=c1[nH]cc(F)c(=O)[nH]1 [FLUOROURACIL] | 4.97 | 5.01 | pIC50 (A549): < 4.30; pIC50 (U-87 MG): < 4.30; pIC50 (HeLa): < 4.30
